Where a name gives a salt, the structure may show the parent alone. Read-outs that look alike come from different tables or passages of the source.

This test addresses T1, recombinant human MGAT2 enzyme (Homo sapiens, UniProt Q3SYC2).
T1 construct: made in house; host or cells: CHO-K1 (Jump-In CHO-K1 Kit, Life Technologies); microsomal fraction used as the enzyme solution
As to the kind of experiment: Test for human MGAT2 activity inhibitory action (14C-oleoyl CoA, recombinant enzyme microsomes). In kind it is biochemical. The arrangement: key to Potency relative to Comparative Example 1 (higher = more potent): % inhibition = {1−(C−B)/(A−B)}×100, B = 10 μM Comparative Example 1. The note with it: for IC50: read-out: IC50. Here is the method:
The human MGAT2 gene described in Am. J. Physiol. Endocrinol. Metab. 285: E927-E937, 2003 was expressed using Jump-In™ CHO-K1 Kit (Life technologies) as described in the attached manual. The cells were suspended in a buffer containing Tris-hydrochloric acid (pH 7.4) at a final concentration of 1 mM, 1 mM ethylenediaminetetraacetic acid, 1 mM dithiothreitol, 250 mM sucrose, and complete protease inhibitor cocktail (Roche applied Science), and then disrupted using a Teflon homogenizer (AS ONE Corporation), followed by centrifugation at 130 g for 10 minutes. The supernatant was further centrifuged at 100,000 g for 1 hour to obtain a pellet as microsomes containing the recombinant enzyme, and a solution obtained by suspending this pellet at a protein concentration of about 800 to 1900 μg/ml was used as an MGAT recombinant enzyme solution.
To a buffer containing 50 mM Tris-hydrochloric acid (pH 7.4), 6 mM magnesium chloride, and 2 mg/mL bovine serum albumin, a test compound was added, and the final concentration of dimethyl sulfoxide was adjusted to 0.3%. Moreover, 2-monooleoyl glycerol, oleoyl CoA, 1-^14C-oleoyl CoA (Perkin Elmer), and orlistat (SIGMA) were added at final concentrations of 50 μM, 50 μM, 2.2 μM, and 8.3 μM, respectively, followed by incubation at 37° C. for 10 minutes. After 10 minutes, the recombinant human MGAT2 enzyme solution was added at a final concentration of 0.67 μg/mL, and the reaction was started, with the amount of the reaction solution being 150 μl. The reaction was carried out at 37° C. for 30 minutes.
After 30 minutes, the reaction was stopped by adding 300 μl of isopropanol:heptane:water=(80:20:2) to the reaction liquid. Further, 200 μl of heptane and 100 μl of water were added, followed by stirring. Then, 100 μl of the upper layer was transferred to a 96-well plate (Corning), and mixed with 100 μl of liquid scintillator (LumaSafe Plus, Lumac). Then, the ^14C count was quantitatively determined using TopCount NXT™ microplate scintillation luminescence counter (Perkin Elmer).
The ^14C count in a case where no test compound was added was defined as A, the ^14C count in a case where 10 μM of the compound (Comparative Example 1) of Example No. 8 of WO2008/038768 was added was defined as B, and the ^14C count in the case where the test compound was added was taken as C. For this case, {1−(C−B)/(A−B)}×100(%) was calculated as the human MGAT2 activity inhibition ratio of the test compound (shown in the column named vs Comp. Ex. 1 in the following Table). A greater value of the “vs Comparative Example 1” means that the MGAT2 activity inhibitory action of the compound of Example was higher as compared to the MGAT2 activity inhibitory action of the compound of Comparative Example 1 (i.e., the human MGAT2 activity inhibition ratio was higher). […] Since this evaluation test was conducted for two separate groups, the test results of the two groups are shown separately in Table (First Test) and Table 4 (Second Test).
Next, the compounds of Examples 25 to 60 of the present invention were also investigated for their pharmacological action by using the same method as in Examples 1 to 24. […] Note that, a comparative evaluation test against the compound of Comparative Example 1 was conducted for each of the compounds of Examples (in every measurement of the inhibitory activity of the compounds of Examples 25 to 60, the inhibitory activity of the compound of Comparative Example 1 was measured). The 50% inhibition concentrations of Comparative Example 1 in the measurement of the inhibitory activities of the compounds of Examples 25 to 60 were shown in Table 5 as “IC50 (nM) of Comparative Example 1.”

Where [1] appears, read: Second Test (Table 4), relative to Comparative Example 1.
Where [2] appears, read: Table 5, Examples 25 to 60, same method.
The mark [3] stands for this setting: Table 5, relative to Comparative Example 1 measured in the same run.

T1 sequence (Q3SYC2 whole entry): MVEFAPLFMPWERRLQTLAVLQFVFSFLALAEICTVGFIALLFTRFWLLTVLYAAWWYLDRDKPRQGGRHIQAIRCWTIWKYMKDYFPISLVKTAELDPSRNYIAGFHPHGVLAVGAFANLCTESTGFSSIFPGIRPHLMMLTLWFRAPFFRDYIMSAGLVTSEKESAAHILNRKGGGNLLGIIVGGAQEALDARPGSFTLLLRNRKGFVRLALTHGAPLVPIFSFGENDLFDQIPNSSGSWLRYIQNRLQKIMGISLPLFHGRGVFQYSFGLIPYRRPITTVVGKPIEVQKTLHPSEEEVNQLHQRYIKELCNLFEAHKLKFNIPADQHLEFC

In the case of `O=C(CCNCc1ccc(C(F)(F)F)cc1)N1CCc2nc(SC3CCC3)n(-c3ccccc3)c(=O)c2C1` [Example 19, 2-cyclobutylsulfanyl-3-phenyl-6-[3-[[4-(trifluoromethyl)phenyl]methylamino]propanoyl]-7,8-dihydro-5H-pyrido[4,3-d]pyrimidin-4-one trifluoroacetate], where the note is “Second Test (Table 4)”, the IC50 – broadly, the concentration that inhibits the measured activity by half – was found to be 0.9 nM. Also, the “Potency relative to Comparative Example 1 (higher = more potent)” value under setting [1] stood at 352.
The matching figures for `O=C(CCNCc1csc2ccccc12)N1CCc2nc(SC3CCC3)n(-c3ccccc3)c(=O)c2C1` [Example 20, 6-[3-(benzothiophen-3-ylmethylamino)propanoyl]-2-cyclobutylsulfanyl-3-phenyl-7,8-dihydro-5H-pyrido[4,3-d]pyrimidin-4-one trifluoroacetate]: 1 nM and 300.
The matching figures for `O=C(CCNCc1cc2ccccc2[nH]1)N1CCc2nc(SC3CCC3)n(-c3ccccc3)c(=O)c2C1` [Example 21, 2-cyclobutylsulfanyl-6-[3-(1H-indol-2-ylmethylamino)propanoyl]-3-phenyl-7,8-dihydro-5H-pyrido[4,3-d]pyrimidin-4-one trifluoroacetate]: 1.2 nM and 246.
The matching figures for `O=C(CCCNCc1ccc(C(F)(F)F)cc1)N1CCc2nc(SC3CCC3)n(-c3ccccc3)c(=O)c2C1` [Example 22, 2-cyclobutylsulfanyl-3-phenyl-6-[4-[[4-trifluoromethyl)phenyl]methylamino]butanoyl]-7,8-dihydro-5H-pyrido[4,3-d]pyrimidin-4-one trifluoroacetate]: 3.8 nM and 79.
With `O=C(CCNCCc1c[nH]c2ccccc12)N1CCc2nc(SC3CCC3)n(-c3ccccc3)c(=O)c2C1` [Example 23, 2-cyclobutylsulfanyl-6-[3-[2-(1H-indol-3-yl)ethylamino]propanoyl]-3-phenyl-7,8-dihydro-5H-pyrido[4,3-d]pyrimidin-4-one trifluoroacetate)], where the note is “Second Test (Table 4)”, the IC50 was 1.6 nM. Under setting [1], the “Potency relative to Comparative Example 1 (higher = more potent)” value came to 193.
The matching figures for `O=C(CCNCc1ccc(OC(F)(F)F)cc1)N1CCc2nc(SC3CCC3)n(-c3ccccc3)c(=O)c2C1` [Example 24, 2-cyclobutylsulfanyl-3-phenyl-6-[3-[[4-(trifluoromethoxy)phenyl]methylamino]propanoyl]-7,8-dihydro-5H-pyrido[4,3-d]pyrimidin-4-one trifluoroacetate)]: 1.4 nM and 221.
With `[2H]c1c([2H])c([2H])c(C([2H])([2H])NCCC(=O)N2CCc3nc(SC4CCC4)n(-c4ccccc4)c(=O)c3C2)c([2H])c1[2H]` [Example 25, 2-cyclobutylsulfanyl-6-[3-[[dideuterio-(2,3,4,5,6-pentadeuteriophenyl)methyl]amino]propanoyl]-3-phenyl-7,8-dihydro-5H-pyrido[4,3-d]pyrimidin-4-one trifluoroacetate], the IC50 under setting [2] was 2.2 nM. Besides, the “Potency relative to Comparative Example 1 (higher = more potent)” value under setting [3] amounted to 111.
The matching figures for `Cc1cc2cccc(CNCCC(=O)N3CCc4nc(SC5CCC5)n(-c5ccccc5)c(=O)c4C3)c2o1` [Example 26, 2-cyclobutylsulfanyl-6-[3-[(2-methylbenzofuran-7-yl)methylamino]propanoyl]-3-phenyl-7,8-dihydro-5H-pyrido[4,3-d]pyrimidin-4-one trifluoroacetate]: 1 nM and 196.
With `O=C(CCNCc1ccc2c(c1)OCO2)N1CCc2nc(SC3CCC3)n(-c3ccccc3)c(=O)c2C1` [Example 28, 6-[3-(1,3-benzodioxol-5-ylmethylamino)propanoyl]-2-cyclobutylsulfanyl-3-phenyl-7,8-dihydro-5H-pyrido[4,3-d]pyrimidin-4-one trifluoroacetate], the IC50 under setting [2] was determined as 1.7 nM. Further, the “Potency relative to Comparative Example 1 (higher = more potent)” value under setting [3] came to 125.
Take `O=C(CCNCC(O)c1ccccc1)N1CCc2nc(SC3CCC3)n(-c3ccccc3)c(=O)c2C1` (stereo not shown) [Example 29, 2-cyclobutylsulfanyl-6-[3-[(2-hydroxy-2-phenyl-ethyl)amino]propanoyl]-3-phenyl-7,8-dihydro-5H-pyrido[4,3-d]pyrimidin-4-one trifluoroacetate]: under setting [2], the IC50 is 1.5 nM. Moreover, the “Potency relative to Comparative Example 1 (higher = more potent)” value under setting [3] is 138.
The matching figures for `O=C(CCNCCc1ccc(O)cc1)N1CCc2nc(SC3CCC3)n(-c3ccccc3)c(=O)c2C1` [Example 30, 2-cyclobutylsulfanyl-6-[3-[2-(4-hydroxyphenyl)ethylamino]propanoyl]-3-phenyl-7,8-dihydro-5H-pyrido[4,3-d]pyrimidin-4-one trifluoroacetate]: 3 nM and 69.
As to `CN(C)c1ccc(CNCCC(=O)N2CCc3nc(SC4CCC4)n(-c4ccccc4)c(=O)c3C2)cc1` [Example 31, 2-cyclobutylsulfanyl-6-[3-[(4-dimethylaminophenyl)methylamino]propanoyl]-3-phenyl-7,8-dihydro-5H-pyrido[4,3-d]pyrimidin-4-one trifluoroacetate], the IC50 under setting [2] is 1.6 nM. Also, the “Potency relative to Comparative Example 1 (higher = more potent)” value under setting [3] is given as 130.
The matching figures for `O=C(CCNCc1ccc2c(c1)CCO2)N1CCc2nc(SC3CCC3)n(-c3ccccc3)c(=O)c2C1` [Example 32, 2-cyclobutylsulfanyl-6-[3-(2,6-dihydrobenzofuran-5-ylmethylamino)propanoyl]-3-phenyl-7,8-dihydro-5H-pyrido[4,3-d]pyrimidin-4-one trifluoroacetate]: 1.3 nM and 166.
In the case of `O=C(CCNCCCCCOc1ccc(C(F)(F)F)cc1)N1CCc2nc(SC3CCC3)n(-c3ccccc3)c(=O)c2C1` [Example 33, 2-cyclobutylsulfanyl-3-phenyl-6-[3-[5-[4-(trifluoromethyl)phenoxy]pentylamino]propanoyl]-7,8-dihydro-5H-pyrido[4,3-d]pyrimidin-4-one trifluoroacetate], the IC50 under setting [2] was 0.8 nM. Also, under setting [3], the “Potency relative to Comparative Example 1 (higher = more potent)” value was found to be 228.
The matching figures for `O=C(CCNCc1nc(Cc2ccccc2)no1)N1CCc2nc(SC3CCC3)n(-c3ccccc3)c(=O)c2C1` [Example 34, 6-[3-[(3-benzyl-1,2,4-oxadiazol-5-yl)methylamino]propanoyl]-2-cyclobutylsulfanyl-3-phenyl-7,8-dihydro-5H-pyrido[4,3-d]pyrimidin-4-one trifluoroacetate]: 3.2 nM and 47.
The matching figures for `O=C(CCNCc1c(F)cccc1F)N1CCc2nc(SC3CCC3)n(-c3ccccc3)c(=O)c2C1` [Example 35, 2-cyclobutylsulfanyl-6-[3-[(2,6-difluorophenyl)methylamino]propanoyl]-3-phenyl-7,8-dihydro-5H-pyrido[4,3-d]pyrimidin-4-one trifluoroacetate]: 1.1 nM and 130.
As to `C[C@@H](CNCCC(=O)N1CCc2nc(SC3CCC3)n(-c3ccccc3)c(=O)c2C1)c1ccccc1` [Example 36], under setting [2], the IC50 came to 0.7 nM. Further, the “Potency relative to Comparative Example 1 (higher = more potent)” value under setting [3] is 205.
